Data: patent publication US7135466B2 (Kirin Beer Kabushiki Kaisha, priority 1999, dated 2006)

The compounds below were run against T1, c-kit (Homo sapiens, UniProt P10721) (assay: Inhibitory activity against c-kit autophosphorylation (MO7e cells, h-SCF)). Settings: MO7e cells, 50 ng/ml h-SCF; read-out: c-kit IC50.
T1 construct: MO7e (human megakaryocytic leukemia cell line) which had been arrested for 20 hr; endogenous in cells; host or cells: MO7e human megakaryocytic leukemia cell line
Assay type: cell-based
Procedure: Inhibitory Activity Against c-kit Autophosphorylation
MO7e (human megakaryocytic leukemia cell line) which had been arrested for 20 hr was seeded into 96 well plates at an amount of 2×10^5 per well. A solution of a test compound in DMSO was added, and a reaction was then allowed to proceed for one hr. Thereafter, the cells were stimulated by 50 ng/ml of h-SCF for 5 min, followed by replacement with lysate buffer to solubilize the cells.
Next, the solubilized cell sap was transferred to a 96-well plate with an anti-phosphotyrosine antibody (PY-20) previously immobilized thereon, and a reaction was allowed to proceed. Thereafter, the cells were reacted with an anti-c-kit antibody (c-19, Santa Cruz) as a primary antibody and were labelled with GAR (anti-rabbit IgG, horseradish peroxidase, Amersham) as a secondary antibody. Color development was then carried out in a peroxidase color development kit (Sumitomo Bakelite Co., Ltd.), and the absorbance was measured at a wavelength of 450 nm.

T1 sequence (P10721 26-976): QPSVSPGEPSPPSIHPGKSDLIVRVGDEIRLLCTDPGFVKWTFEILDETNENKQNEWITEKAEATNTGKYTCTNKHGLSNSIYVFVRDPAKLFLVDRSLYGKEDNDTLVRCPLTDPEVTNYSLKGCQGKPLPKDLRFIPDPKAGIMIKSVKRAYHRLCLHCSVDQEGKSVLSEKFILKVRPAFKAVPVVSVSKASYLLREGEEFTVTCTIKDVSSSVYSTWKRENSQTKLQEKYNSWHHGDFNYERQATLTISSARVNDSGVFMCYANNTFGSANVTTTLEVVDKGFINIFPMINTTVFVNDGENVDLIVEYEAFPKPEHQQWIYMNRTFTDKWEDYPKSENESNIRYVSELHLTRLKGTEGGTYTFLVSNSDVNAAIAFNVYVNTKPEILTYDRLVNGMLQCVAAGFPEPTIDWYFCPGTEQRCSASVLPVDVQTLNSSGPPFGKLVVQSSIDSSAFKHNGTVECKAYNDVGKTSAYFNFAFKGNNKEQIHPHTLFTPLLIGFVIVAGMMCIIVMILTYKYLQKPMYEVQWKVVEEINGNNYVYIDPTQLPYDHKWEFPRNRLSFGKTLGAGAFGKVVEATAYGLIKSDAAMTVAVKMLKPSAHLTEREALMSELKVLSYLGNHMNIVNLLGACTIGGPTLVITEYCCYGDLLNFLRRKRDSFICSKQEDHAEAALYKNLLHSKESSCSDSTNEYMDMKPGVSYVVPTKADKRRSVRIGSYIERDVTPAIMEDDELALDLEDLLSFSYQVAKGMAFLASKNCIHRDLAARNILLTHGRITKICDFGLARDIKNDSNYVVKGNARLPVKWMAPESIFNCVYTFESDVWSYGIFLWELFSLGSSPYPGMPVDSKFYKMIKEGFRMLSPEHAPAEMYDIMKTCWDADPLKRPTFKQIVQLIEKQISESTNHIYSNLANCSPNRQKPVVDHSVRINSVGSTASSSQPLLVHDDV

With `COc1cc2nccc(Oc3ccc(OCC(=O)Nc4ccc(Cl)cc4)cc3)c2cc1OC` [Example 789, N1-(4-Chlorophenyl)-2-{4-[(6,7-dimethoxy-4-quinolyl)oxy]phenoxy}acetamide] the IC50 was 0.154 µM.

Same assay, conditions: MO7e cells, h-SCF 50 ng/ml; read-out: c-kit IC50

`C=CCCCOC(=O)Nc1cc(C)c(Oc2ccnc3cc(OC)c(OC)cc23)cc1C` [Example 267, 4-Pentenyl N-{4-[(6,7-dimethoxy-4-quinolyl)oxy]-2,5-dimethylphenyl}carbamate] showed an IC50 of 0.035 µM.

Same assay, conditions: MO7e cells, h-SCF stimulation; read-out: c-kit IC50

`COc1cc2nccc(Oc3ccc(NC(=S)NC(=O)C4CCCCC4)c(F)c3)c2cc1OC` [Example 1064, N-Cyclohexylcarbonyl-N′-{4-[(6,7-dimethoxy-4-quinolyl)oxy]-2-fluorophenyl}thiourea] and `COc1cc2nccc(Oc3ccc(NC(=S)NC(=O)C4CCCCC4)cc3)c2cc1OC` [Example 1062, N-Cyclohexylcarbonyl-N′-{4-[(6,7-dimethoxy-4-quinolyl)oxy]phenyl}thiourea] are within 1.5-fold of each other in IC50: 0.279 µM for the first, 0.233 µM for the second.

First: COc1cc2ncnc(Oc3ccc(NC(=S)NC(=O)c4ccccc4Cl)cc3Cl)c2cc1OC [Example 920, N-(2-Chlorobenzoyl)-N′-{3-chloro-4-[(6,7-dimethoxy-4-quinazolinyl)oxy]phenyl}thiourea]
Second: COc1cc2nccc(Oc3ccc(NC(=S)NC(=O)c4cccc(Cl)c4)cc3F)c2cc1OC [Example 943, N-(3-Chlorobenzoyl)-N′-{4-[(6,7-dimethoxy-4-quinolyl)oxy]-3-fluorophenyl}thiourea]
The IC50 of the first is 3.3-fold higher: 0.448 µM for the first, 0.136 µM for the second.

`COc1cc2nccc(Oc3ccc(NC(=S)NC(=O)c4cccc(F)c4)cc3F)c2cc1OC` [Example 942, N-{4-[(6,7-Dimethoxy-4-quinolyl)oxy]-3-fluorophenyl}-N′-(3-fluorobenzoyl)thiourea] and `COc1cc2nccc(Oc3ccc(NC(=S)NC(=O)c4ccc([N+](=O)[O-])cc4)cc3F)c2cc1OC` [Example 975, N-{4-[(6,7-Dimethoxy-4-quinolyl)oxy]-3-fluorophenyl}-N′-(4-nitrobenzoyl)thiourea] are within 1.5-fold of each other in IC50: 0.335 µM for the first, 0.29 µM for the second.

First: COc1cc2nccc(Oc3ccc(SCCOc4ccccc4C(C)C)cc3)c2cc1OC [Example 815, 4-(4-{[2-(2-Isopropylphenoxy)ethyl]sulfanyl}phenoxy)-6,7-dimethoxyquinoline]
Second: COc1ccc(OCCSc2ccc(Oc3ccnc4cc(OC)c(OC)cc34)cc2)cc1 [Example 813, 6,7-Dimethoxy-4-(4-{[2-(4-methoxyphenoxy)ethyl]sulfanyl}phenoxy)quinoline]
The IC50 of the first is 2.2-fold lower: 0.18 µM for the first, 0.402 µM for the second. The first is the more potent here.

`COc1cc2nccc(Oc3ccc(NCCOc4cccc(C)c4)cc3)c2cc1OC` [Example 871, N-{4-[(6,7-Dimethoxy-4-quinolyl)oxy]phenyl}-N-[2-(3-methylphenoxy)ethyl]amine] and `COc1cc2nccc(Oc3ccc(NCCOc4ccc(C)cc4)cc3)c2cc1OC` [Example 870, N-{4-[(6,7-Dimethoxy-4-quinolyl)oxy]phenyl}-N-[2-(4-methylphenoxy)ethyl]amine] are within 1.5-fold of each other in IC50: 0.043 µM for the first, 0.048 µM for the second.

`COc1cc2nccc(Oc3ccc(NC(=S)NC(=O)c4ccccc4Br)c(F)c3)c2cc1OC` [Example 907, N-(2-Bromobenzoyl)-N′-{4-[(6,7-dimethoxy-4-quinolyl)oxy]-2-fluorophenyl}thiourea] and `COc1cc2nccc(Oc3ccc(NC(=S)NC(=O)C4CC4c4ccccc4)cc3F)c2cc1OC` (stereo not shown) [Example 1057, N-{4-[(6,7-Dimethoxy-4-quinolyl)oxy]-3-fluorophenyl}-N′-[(2-phenylcyclopropyl)carbonyl]thiourea] are within 1.5-fold of each other in IC50: 0.572 µM for the first, 0.447 µM for the second.

Work on `COc1cc2nccc(Oc3ccc(NCCOc4ccccc4Cl)cc3C)c2cc1OC` [Example 877, N-[2-(2-Chlorophenoxy)ethyl]-N-{4-[(6,7-dimethoxy-4-quinolyl)oxy]-3-methylphenyl}amine] yielded an IC50 of 0.219 µM.

Same assay, conditions: Mo7e, figure in parentheses in −( ); at 1000 nM

Work on `COc1cc2nccc(Oc3ccc(NC(=S)NC(=O)c4c(Cl)cccc4Cl)cc3Cl)c2cc1OC` [Example 1115, N-{3-Chloro-4-[(6,7-dimethoxy-4-quinolyl)oxy]phenyl}-N′-(2,6-dichlorobenzoyl)thiourea] yielded an inhibition at 1 µM of 10%.
